Measured values as given in US10030027B2, “Soluble guanylate cyclase stimulators” (MERCK SHARP & DOHME CORP., priority 2015, dated 2018).

Molecular target: sGC α1/β1 heterodimer (Homo sapiens (Human), UniProt Q02108+Q02153)
Experiment: Cell-based sGC functional assay (cyclic GMP assay for sGC activator: CASA assay)
Design: % Activation: concentration or dose not given beside the values
Settings: CHO-K1/sGC cells; for Emax: CHO-K1, activity expressed as percentage of compound A (standard), read-out: % Activation; for EC50: inflection point, 4P fit, read-out: IP
From the text: Cell-Based sGC Functional Assay (Cyclic GMP Assay for sGC Activator: CASA Assay)
Soluble guanylate cyclase (sGC) is a heme-containing enzyme that converts GTP to secondary messenger cGMP. Increases in cGMP levels affect several physiological processes including vasorelaxation through multiple downstream pathways. […] Heme-dependent activators (HDAs) preferentially activate sGC containing a ferrous heme group. To determine the effect of sGC activators on enzyme activity, the CASA assay was developed to monitor the generation of cGMP in a cell line that stably expresses the heterodimeric sGC protein.
A CHO-K1 cell line stably expressing the sGC α1/β1 heterodimer was generated using a standard transfection protocol. CHO-K1 cells were transfected with plasmids pIREShyghsGCα1 and pIRESneo-hsGCβ1 simultaneously using FUGENE reagent. Clones that stably express both subunits were selected with hygromycin and neomycin for ˜2 weeks. Clone #7 was chosen for the assay and was designated CHO-K1/sGC. CHO-K1/sGC cells were maintained in F-K12 medium containing 10% heat-inactivated Fetal Bovine Serum (FBS), 100 μg/mL penicillin/streptomycin, 0.5 mg/mL hygromycin and 0.25 mg/mL G418. The cells were then cryopreserved in LN2. On the day of the assay, the cells were thawed and resuspended in EBSS Assay Buffer (Sigma, E3024) supplemented with 5 mM MgCl2, 10 mM HEPES (4-(2-hydroxyethyl)piperazine-1-ethanesulfonic acid) and 0.05% BSA (bovine serum albumin) (EAB) and cell density was then adjusted to 2.25×10^5/mL with EAB. IBMX (3-isobutyl-1-methylxanthin, 0.5 mM) was added to inhibit degradation of cGMP. Compounds were diluted from DMSO stock solutions and added to the assay at a final DMSO concentration of 2.5%. Cells were pre-incubated in the presence and absence of 1 μM of Diethylenetriamine/nitric oxide adduct (DETA-NO; Sigma, 17018) for 30 min at 25° C. Compounds are subsequently added and incubated for 1 hr at 37° C. At the end of the incubation period, the reaction was terminated and the cells were lysed with the detection reagents from Cisbio Kits. The level of intracellular cGMP was determined using an HTRF-based assay kit (CisBio, 62GM2PEC), which detects the displacement of a fluorescence labeled cGMP from its specific antibody. The cGMP produced by test compounds was directly compared to the maximum cGMP production (this value was set to equal 100% activation.) of the published sGC-HDA compound A:
(Example 1 in WO 2010/065275, published Jun. 10, 2010). The test compounds' activity were then expressed as a percentage of compound A, the standard in every experiment. This percent activation was calculated either in the presence or absence of DETA-NO which was then plotted. Inflection points (IP) and maximum fold induction was derived using Abase analysis software for 4P fit.

Sequence of sGC α1/β1 heterodimer (Q02108 whole entry): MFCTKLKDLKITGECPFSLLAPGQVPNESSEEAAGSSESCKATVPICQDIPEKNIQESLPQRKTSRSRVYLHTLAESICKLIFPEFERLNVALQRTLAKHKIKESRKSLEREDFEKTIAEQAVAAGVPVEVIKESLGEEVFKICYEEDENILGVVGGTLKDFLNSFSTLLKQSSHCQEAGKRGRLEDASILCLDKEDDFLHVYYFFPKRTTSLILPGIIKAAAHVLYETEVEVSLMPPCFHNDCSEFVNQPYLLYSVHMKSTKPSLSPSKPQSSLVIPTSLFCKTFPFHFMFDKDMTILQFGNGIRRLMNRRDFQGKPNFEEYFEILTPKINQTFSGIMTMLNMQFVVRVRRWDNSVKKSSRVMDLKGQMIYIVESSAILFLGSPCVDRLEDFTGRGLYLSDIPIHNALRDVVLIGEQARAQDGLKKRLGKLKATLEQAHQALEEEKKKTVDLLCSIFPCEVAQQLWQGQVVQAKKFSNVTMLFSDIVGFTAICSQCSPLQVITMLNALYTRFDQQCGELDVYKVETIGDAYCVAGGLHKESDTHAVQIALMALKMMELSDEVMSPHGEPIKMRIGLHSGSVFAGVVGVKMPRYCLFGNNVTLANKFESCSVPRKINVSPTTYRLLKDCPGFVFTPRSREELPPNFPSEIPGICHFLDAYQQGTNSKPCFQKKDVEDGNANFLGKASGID
Sequence of sGC α1/β1 heterodimer (Q02153 whole entry): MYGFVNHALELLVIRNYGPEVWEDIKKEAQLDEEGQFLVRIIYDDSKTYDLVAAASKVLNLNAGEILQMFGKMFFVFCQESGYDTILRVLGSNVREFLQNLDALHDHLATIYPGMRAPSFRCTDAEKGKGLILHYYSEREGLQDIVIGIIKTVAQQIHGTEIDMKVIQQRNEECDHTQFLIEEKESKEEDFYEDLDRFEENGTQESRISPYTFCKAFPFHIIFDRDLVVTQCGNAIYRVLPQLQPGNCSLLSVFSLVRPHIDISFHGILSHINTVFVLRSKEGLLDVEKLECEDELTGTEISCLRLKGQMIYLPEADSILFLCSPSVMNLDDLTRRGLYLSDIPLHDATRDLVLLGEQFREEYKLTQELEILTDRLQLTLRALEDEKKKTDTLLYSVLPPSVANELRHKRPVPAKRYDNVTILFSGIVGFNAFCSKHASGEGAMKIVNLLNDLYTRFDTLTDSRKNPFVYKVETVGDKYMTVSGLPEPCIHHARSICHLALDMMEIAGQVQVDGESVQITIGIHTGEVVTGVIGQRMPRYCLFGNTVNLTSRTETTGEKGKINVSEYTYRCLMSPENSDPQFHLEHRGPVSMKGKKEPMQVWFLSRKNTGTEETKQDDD

## CC1(c2nc(CCC(=O)O)co2)C(=O)Nc2nc(-c3nn(Cc4ccccc4F)c4ccccc34)nc(N)c21 (centres unmarked) [Example 54A, 3-(2-{4-amino-2-[1-(2-fluorobenzyl)-1H-indazol-3-yl]-5-methyl-6-oxo-6,7-dihydro-5H-pyrrolo[2,3-d]pyrimidin-5-yl}oxazol-4-yl)propanoic acid]
  Emax: 106%
  EC50: 490 nM

## C[C@@H](NC(=O)CCc1ccc([C@]2(C)C(=O)Nc3nc(-c4nn(Cc5ccccc5F)c5ncccc45)nc(N)c32)cc1)C(=O)O [Example 102B, (5S)-(3-(4-{4-amino-2-[1-(2-fluorobenzyl)-1H-pyrazolo[3,4-b]pyridin-3-yl]-5-methyl-6-oxo-6,7-dihydro-5H-pyrrolo[2,3-d]pyrimidin-5-yl}phenyl)propanoyl)-D-alanine]
  Emax: 100%
  EC50: 573 nM

## CC(C)(Cc1coc(C2(C)C(=O)Nc3nc(-c4nn(Cc5ccccc5F)c5ccc(F)cc45)nc(N)c32)n1)C(=O)O (centres unmarked) [Example 72A, 3-(2-{4-amino-2-[5-fluoro-1-(2-fluorobenzyl)-1H-indazol-3-yl]-5-methyl-6-oxo-6,7-dihydro-5H-pyrrolo[2,3-d]pyrimidin-5-yl}oxazol-4-yl)-2,2-dimethylpropanoic acid]
  Emax: 80%
  EC50: 42 nM

## CC1(c2cccc(CCC(=O)O)c2)C(=O)Nc2nc(-c3nn(Cc4ccccc4F)c4ncc(F)cc34)nc(N)c21 (centres unmarked) [Example 24A, 3-(3-{4-amino-2-[5-fluoro-1-(2-fluorobenzyl)-1H-pyrazolo[3,4-b]pyridin-3-yl]-5-methyl-6-oxo-6,7-dihydro-5H-pyrrolo[2,3-d]pyrimidin-5-yl}phenyl)propanoic acid]
  Emax: 106%
  EC50: 210 nM

## CC(C)(Cc1coc(C2(C)C(=O)Nc3nc(-c4nn(Cc5ccccc5F)c5ccc(Cl)cc45)nc(N)c32)n1)C(=O)O (centres unmarked) [Example 74A, 3-(2-{4-amino-2-[5-chloro-1-(2-fluorobenzyl)-1H-indazol-3-yl]-5-methyl-6-oxo-6,7-dihydro-5H-pyrrolo[2,3-d]pyrimidin-5-yl}oxazol-4-yl)-2,2-dimethylpropanoic acid]
  Emax: 94%
  EC50: 62 nM

## C[C@@]1(c2ccc(CCC(=O)O)cc2)C(=O)Nc2nc(-c3nn(Cc4ccc(F)cc4)c4cc(Cl)ccc34)nc(N)c21 [Example 65B, (S)-3-(4-{4-amino-2-[6-chloro-1-(4-fluorobenzyl)-1H-indazol-3-yl]-5-methyl-6-oxo-6,7-dihydro-5H-pyrrolo[2,3-d]pyrimidin-5-yl}phenyl)propanoic acid]
  Emax: 136%
  EC50: 1100 nM

## CC1(c2ccc(CCCC(=O)O)cc2)C(=O)Nc2nc(-c3nn(Cc4ccccc4F)c4cc(Cl)ccc34)nc(N)c21 (centres unmarked) [Example 115A, 4-(4-{4-amino-2-[6-chloro-1-(2-fluorobenzyl)-1H-indazol-3-yl]-5-methyl-6-oxo-6,7-dihydro-5H-pyrrolo[2,3-d]pyrimidin-5-yl}phenyl)butanoic acid]
  Emax: 79%
  EC50: 122 nM

## C[C@@]1(c2ccc(CCC(=O)O)cc2)C(=O)Nc2nc(-c3nn(Cc4ccccc4F)c4ccc(Cl)cc34)nc(N)c21 [Example 73B, (S)-3-(4-{4-amino-2-[5-chloro-1-(2-fluorobenzyl)-1H-indazol-3-yl]-5-methyl-6-oxo-6,7-dihydro-5H-pyrrolo[2,3-d]pyrimidin-5-yl}phenyl)propanoic acid]
  Emax: 87%
  EC50: 85 nM

## CC1(c2cccc(CCC(=O)O)c2)C(=O)Nc2nc(-c3nn(Cc4ccccc4F)c4ccccc34)nc(N)c21 (centres unmarked) [Example 53A, 3-(3-{4-amino-2-[1-(2-fluorobenzyl)-1H-indazol-3-yl]-5-methyl-6-oxo-6,7-dihydro-5H-pyrrolo[2,3-d]pyrimidin-5-yl}phenyl)propanoic acid]
  Emax: 102%
  EC50: 124 nM

## CC1(c2nc(CCCC(=O)O)cs2)C(=O)Nc2nc(-c3nn(Cc4ccccc4F)c4cc(Cl)ccc34)nc(N)c21 (centres unmarked) [Example 49A, 4-(2-{4-amino-2-(6-chloro-1-(2-fluorobenzyl)-1H-indazol-3-yl)-5-methyl-6-oxo-6,7-dihydro-5H-pyrrolo[2,3-d]pyrimidin-5-yl}thiazol-4-yl)butanoic acid]
  Emax: 91%
  EC50: 119 nM

## CC(C)(CCc1csc(C2(C)C(=O)Nc3nc(-c4nn(Cc5ccccc5F)c5cc(Cl)ccc45)nc(N)c32)n1)C(=O)O (centres unmarked) [Example 166A, 4-(2-{4-amino-2-[6-chloro-1-(2-fluorobenzyl)-1H-indazol-3-yl]-5-methyl-6-oxo-6,7-dihydro-5H-pyrrolo[2,3-d]pyrimidin-5-yl}-1,3-thiazol-4-yl)-2,2-dimethyl-butanoic acid]
  Emax: 86.4%

## Cc1ccc2c(-c3nc(N)c4c(n3)NC(=O)[C@@]4(C)c3nc(CC(C)(C)C(=O)O)cs3)nn(Cc3ccc(C)c(F)c3F)c2n1 [Example 75A, (S)-3-(2-{4-amino-2-[1-(2,3-difluoro-4-methylbenzyl)-6-methyl-1H-pyrazolo[3,4-b]pyridin-3-yl]-5-methyl-6-oxo-6,7-dihydro-5H-pyrrolo[2,3-d]pyrimidin-5-yl}thiazol-4-yl)-2,2-dimethylpropanoic acid]
  Emax: 155%
  EC50: 238 nM

## CC(C)(Cc1coc(C2(C)C(=O)Nc3nc(-c4nn(Cc5ccccc5F)c5ccccc45)nc(N)c32)n1)C(=O)O (centres unmarked) [Example 56A, 3-(2-{4-amino-2-[1-(2-fluorobenzyl)-1H-indazol-3-yl]-5-methyl-6-oxo-6,7-dihydro-5H-pyrrolo[2,3-d]pyrimidin-5-yl}oxazol-4-yl)-2,2-dimethylpropanoic acid]
  Emax: 116%
  EC50: 134 nM

## CC1(c2ccc(CC(=O)O)cc2)C(=O)Nc2nc(-c3nn(Cc4ccccc4F)c4cc(Cl)ccc34)nc(N)c21 (centres unmarked) [Example 117A, 2-(4-{4-amino-2-[6-chloro-1-(2-fluorobenzyl)-1H-indazol-3-yl]-5-methyl-6-oxo-6,7-dihydro-5H-pyrrolo[2,3-d]pyrimidin-5-yl}phenyl)acetic acid]
  Emax: 69%
  EC50: 302 nM

## CC1(c2nc(CCC(=O)O)co2)C(=O)Nc2nc(-c3nn(Cc4ccccc4F)c4cc(Cl)ccc34)nc(N)c21 (centres unmarked) [Example 50A, 3-(2-{4-amino-2-(6-chloro-1-(2-fluorobenzyl)-1H-indazol-3-yl)-5-methyl-6-oxo-6,7-dihydro-5H-pyrrolo[2,3-d]pyrimidin-5-yl}oxazol-4-yl)propanoic acid]
  Emax: 98%
  EC50: 407 nM

## CC1CCC(Cn2nc(-c3nc(N)c4c(n3)NC(=O)C4(C)c3nc(CC(C)(C)C(=O)O)co3)c3ccc(F)cc32)CC1 (racemic) [Example 137AB, 3-{2-[4-amino-2-{6-fluoro-1-[4-methylcyclohexylmethyl]-1H-indazol-3-yl}-5-methyl-6-oxo-6,7-dihydro-5H-pyrrolo[2,3-d]pyrimidin-5-yl]-1,3-oxazol-4-yl}-2,2-dimethylpropanoic acid]
Activity expressed as percentage of compound A (standard)
  % Activation: 98.4%

## CC[C@@H](NC(=O)CCc1ccc([C@]2(C)C(=O)Nc3nc(-c4nn(Cc5ccccc5F)c5ncccc45)nc(N)c32)cc1)C(=O)O [Example 104B, (5S,2R)-2-(3-(4-{4-amino-2-[1-(2-fluorobenzyl)-1H-pyrazolo[3,4-b]pyridin-3-yl]-5-methyl-6-oxo-6,7-dihydro-5H-pyrrolo[2,3-d]pyrimidin-5-yl}phenyl)propanamido)butanoic acid]
  Emax: 106%
  EC50: 1370 nM
